Assays:
CDK4-CYCLIND1 = CDK4-CYCLIND1 (Homo sapiens, UniProt P11802); experiment: Microfluidic LabChip kinase inhibition assay, CDK4-CyclinD1; settings: CDK4 IC50 (μM), Table 2; 200 μM ATP, 1 nM enzyme
CDK6-CYCLIND3 = molecular target: T1, CDK6-CYCLIND3 (Homo sapiens, UniProt Q00534); experiment: Microfluidic LabChip kinase inhibition assay, CDK6-CyclinD3; assay type: biochemical; settings: Table 2; 300 μM ATP, 2 nM enzyme; read-out: CDK6 IC50
T1 construct: purchased Carna
T1 sequence (Q00534 whole entry): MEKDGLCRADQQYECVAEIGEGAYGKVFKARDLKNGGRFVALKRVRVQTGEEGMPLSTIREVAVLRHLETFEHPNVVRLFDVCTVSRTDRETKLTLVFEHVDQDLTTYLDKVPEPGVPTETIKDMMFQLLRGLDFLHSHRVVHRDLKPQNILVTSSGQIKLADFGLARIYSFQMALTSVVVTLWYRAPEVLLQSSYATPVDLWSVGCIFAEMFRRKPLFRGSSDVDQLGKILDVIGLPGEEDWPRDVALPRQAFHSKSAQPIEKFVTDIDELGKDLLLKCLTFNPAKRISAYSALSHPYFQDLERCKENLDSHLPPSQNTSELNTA
T1 sequence (P30281 whole entry partner): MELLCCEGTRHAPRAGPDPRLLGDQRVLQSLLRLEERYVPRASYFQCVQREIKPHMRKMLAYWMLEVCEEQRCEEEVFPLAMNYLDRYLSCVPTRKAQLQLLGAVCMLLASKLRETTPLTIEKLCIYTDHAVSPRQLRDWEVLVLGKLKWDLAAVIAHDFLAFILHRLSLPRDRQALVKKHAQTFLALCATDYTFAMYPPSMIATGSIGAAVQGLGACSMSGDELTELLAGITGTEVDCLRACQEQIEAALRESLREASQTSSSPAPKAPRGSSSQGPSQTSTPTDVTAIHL

CDK4-CYCLIND1, sequence (P11802 whole entry): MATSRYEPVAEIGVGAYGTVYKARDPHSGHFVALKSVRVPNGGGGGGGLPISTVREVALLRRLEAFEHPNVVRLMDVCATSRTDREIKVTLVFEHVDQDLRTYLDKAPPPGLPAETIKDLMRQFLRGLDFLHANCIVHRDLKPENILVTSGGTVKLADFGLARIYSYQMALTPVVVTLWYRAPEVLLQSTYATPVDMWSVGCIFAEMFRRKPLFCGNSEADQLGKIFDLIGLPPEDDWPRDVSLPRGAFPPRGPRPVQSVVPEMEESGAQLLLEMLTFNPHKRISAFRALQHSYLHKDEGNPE
CDK4-CYCLIND1, sequence (P24385 whole entry partner): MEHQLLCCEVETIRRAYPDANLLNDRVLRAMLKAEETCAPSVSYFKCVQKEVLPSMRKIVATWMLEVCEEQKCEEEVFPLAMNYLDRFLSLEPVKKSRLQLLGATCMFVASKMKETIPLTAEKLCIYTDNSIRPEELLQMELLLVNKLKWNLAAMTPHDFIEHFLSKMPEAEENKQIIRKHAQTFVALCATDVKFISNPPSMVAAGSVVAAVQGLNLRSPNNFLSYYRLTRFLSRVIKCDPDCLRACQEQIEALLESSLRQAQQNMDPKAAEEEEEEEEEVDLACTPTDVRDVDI

SMILES	IC50 (CDK4-CYCLIND1) [µM]	IC50 (CDK6-CYCLIND3) [µM]
O=C1NCCCC12Cc1cnc(Nc3cc(C(F)(F)F)c(N4CCNCC4)cn3)nc1N2C1CCCC1 (stereo not drawn) [Compound C44, 7′-cyclopentyl-2′-((5-(piperazin-1-yl)-4-(trifluoromethyl)pyridin-2-yl)amino)-5′,7′-dihydrospiro[piperidine-3,6′-pyrrolo[2,3-d]pyrimidin]-2-one]	> 30	> 30
CN1CCN(c2ccc(Nc3ncc4c(n3)N(C3CCCC3)C3(CCNC3=O)C4)cc2F)CC1 (stereo not drawn) [Compound C48, 7′-cyclopentyl-2′-((3-fluoro-4-(4-methylpiperazin-1-yl)phenyl)amino)-5′,7′-dihydrospiro[pyrrolidine-3,6′-pyrrolo[2,3-d]pyrimidin]-2-one]	0.0161	0.129
O=C1NCCC12Cc1cnc(Nc3ccc(N4CCNCC4)cc3F)nc1N2C1CCCC1 (stereo not drawn) [Compound C50, 7′-cyclopentyl-2′-((2-fluoro-4-(piperazin-1-yl)phenyl)amino)-5′,7′-dihydrospiro[pyrrolidine-3,6′-pyrrolo[2,3-d]pyrimidin]-2-one]	0.888	4.21
O=C1NCCC12Cc1cnc(Nc3ccc(N4CCNCC4)nc3)nc1N2C1CCCC1 (stereo not drawn) [Compound C53, 7′-cyclopentyl-2′-((6-(piperazin-1-yl)pyridin-3-yl)amino)-5′,7′-dihydrospiro[pyrrolidine-3,6′-pyrrolo[2,3-d]pyrimidin]-2-one]	0.0658	0.26
O=C1NCCC12Cc1cnc(Nc3ccc(C4=CCNCC4)cn3)nc1N2C1CCCC1 (stereo not drawn) [Compound C56, 7′-cyclopentyl-2′-((1′,2′,3′,6′-tetrahydro-[3,4′-bipyridin]-6-yl)amino)-5′,7′-dihydrospiro[pyrrolidine-3,6′-pyrrolo[2,3-d]pyrimidin]-2-one]	0.372	0.803
CC(C)N1CC=C(c2ccc(Nc3ncc4c(n3)N(C3CCCC3)C3(CCNC3=O)C4)nc2)CC1 (stereo not drawn) [Compound C57, 7′-cyclopentyl-2′-((1′-isopropyl-1′,2′,3′,6′-tetrahydro-[3,4′-bipyridin]-6-yl)amino)-5′,7′-dihydrospiro[pyrrolidine-3,6′-pyrrolo[2,3-d]pyrimidin]-2-one]	0.387	0.952
CN(C)CCOc1ccc(Nc2ncc3c(n2)N(C2CCCC2)C2(CCNC2=O)C3)cc1 (stereo not drawn) [Compound C59, 7′-cyclopentyl-2′-((4-(2-(dimethylamino)ethoxy)phenyl)amino)-5′,7′-dihydrospiro[pyrrolidine-3,6′-pyrrolo[2,3-d]pyrimidin]-2-one]	0.142	0.63
CN(C)CCOc1ccc(Nc2ncc3c(n2)N(C2CCCC2)C2(CCNC2=O)C3)nc1 (stereo not drawn) [Compound C60, 7′-cyclopentyl-2′-((5-(2-(dimethylamino)ethoxy)pyridin-2-yl)amino)-5′,7′-dihydrospiro[pyrrolidine-3,6′-pyrrolo[2,3-d]pyrimidin]-2-one]	1.5	3.42
CN(C)CCOc1ccc(Nc2ncc3c(n2)N(C2CCCC2)C2(CCNC2=O)C3)cn1 (stereo not drawn) [Compound C61, 7′-cyclopentyl-2′-((6-(2-(dimethylamino)ethoxy)pyridin-3-yl)amino)-5′,7′-dihydrospiro[pyrrolidine-3,6′-pyrrolo[2,3-d]pyrimidin]-2-one]	0.19	0.793
CN(C)C(=O)c1cc2cnc(Nc3ccc(N4CCN(C#N)CC4)cn3)nc2n1C1CCCC1 [Compound C64, 2-((5-(4-cyanopiperazin-1-yl)pyridin-2-yl)amino)-7-cyclopentyl-N,N-dimethyl-7H-pyrrolo[2,3-d]pyrimidine-6-carboxamide]	> 30	> 30
CN1C(=O)CC2(Cc3cnc(Nc4ccc(N5CCNCC5)cn4)nc3N2C2CCCC2)C1=O (stereo not drawn) [Compound C65, 7′-cyclopentyl-1-methyl-2′-((5-(piperazin-1-yl)pyridin-2-yl)amino)-5′,7′-dihydrospiro[pyrrolidine-3,6′-pyrrolo[2,3-d]pyrimidine]-2,5-dione]	12.3	15.4

Next, values leading:

IC50 (CDK4-CYCLIND1) [µM]	IC50 (CDK6-CYCLIND3) [µM]	SMILES
0.53	2.55	CN1CCN(c2ccc(Nc3ncc4c(n3)N(C3CCCC3)C3(CCN(Cc5ccccc5)C3=O)C4)cc2F)CC1 (stereo not drawn) [Compound C39, 1-benzyl-7′-cyclopentyl-2′-((3-fluoro-4-(4-methylpiperazin-1-yl)phenyl)amino)-5′,7′-dihydrospiro[pyrrolidine-3,6′-pyrrolo[2,3-d]pyrimidin]-2-one]
2.96	10.7	CN1CCN(c2ccc(Nc3ncc4c(n3)N(C3CCCC3)C3(CCCN(Cc5ccccc5)C3=O)C4)cc2F)CC1 (stereo not drawn) [Compound C40, 1-benzyl-7′-cyclopentyl-2′-((3-fluoro-4-(4-methylpiperazin-1-yl)phenyl)amino)-5′,7′-dihydrospiro[piperidine-3,6′-pyrrolo[2,3-d]pyrimidin]-2-one]
5.98	12.8	CN1CCN(c2ccc(Nc3ncc4c(n3)N(C3CCCC3)C3(CCN(Cc5ccccc5)C3=O)C4)c(F)c2)CC1 (stereo not drawn) [Compound C41, 1-benzyl-7′-cyclopentyl-2′-((2-fluoro-4-(4-methylpiperazin-1-yl)phenyl)amino)-5′,7′-dihydrospiro[pyrrolidine-3,6′-pyrrolo[2,3-d]pyrimidin]-2-one]
4.46	12.1	CN1CCN(c2ccc(Nc3ncc4c(n3)N(C3CCCC3)C3(CCCN(Cc5ccccc5)C3=O)C4)c(F)c2)CC1 (stereo not drawn) [Compound C42, 1-benzyl-7′-cyclopentyl-2′-((2-fluoro-4-(4-methylpiperazin-1-yl)phenyl)amino)-5′,7′-dihydrospiro[piperidine-3,6′-pyrrolo[2,3-d]pyrimidin]-2-one]
0.0633	0.423	O=C1NCCC12Cc1cnc(Nc3ccc(N4CCNCC4)cc3)nc1N2C1CCCC1 (stereo not drawn) [Compound C43, 7′-cyclopentyl-2′-((4-(piperazin-1-yl)phenyl)amino)-5′,7′-dihydrospiro[pyrrolidine-3,6′-pyrrolo[2,3-d]pyrimidin]-2-one]
0.105	0.574	CN1CCN(c2ccc(Nc3ncc4c(n3)N(C3CCCC3)C3(CCNC3=O)C4)cc2)CC1 (stereo not drawn) [Compound C45, 7′-cyclopentyl-2′-((4-(4-methylpiperazin-1-yl)phenyl)amino)-5′,7′-dihydrospiro[pyrrolidine-3,6′-pyrrolo[2,3-d]pyrimidin]-2-one]
0.0701	0.394	CC(C)N1CCN(c2ccc(Nc3ncc4c(n3)N(C3CCCC3)C3(CCNC3=O)C4)cc2)CC1 (stereo not drawn) [Compound C46, 7′-cyclopentyl-2′-((4-(4-isopropylpiperazin-1-yl)phenyl)amino)-5′,7′-dihydrospiro[pyrrolidine-3,6′-pyrrolo[2,3-d]pyrimidin]-2-one]
0.0315	0.179	O=C1NCCC12Cc1cnc(Nc3ccc(N4CCNCC4)c(F)c3)nc1N2C1CCCC1 (stereo not drawn) [Compound C47, 7′-cyclopentyl-2′-((3-fluoro-4-(piperazin-1-yl)phenyl)amino)-5′,7′-dihydrospiro[pyrrolidine-3,6′-pyrrolo[2,3-d]pyrimidin]-2-one]
0.0298	0.175	CC(C)N1CCN(c2ccc(Nc3ncc4c(n3)N(C3CCCC3)C3(CCNC3=O)C4)cc2F)CC1 (stereo not drawn) [Compound C49, 7′-cyclopentyl-2′-((3-fluoro-4-(4-isopropylpiperazin-1-yl)phenyl)amino)-5′,7′-dihydrospiro[pyrrolidine-3,6′-pyrrolo[2,3-d]pyrimidin]-2-one]
> 30	> 30	CN1CCN(c2ccc(Nc3ncc4c(n3)N(C3CCCC3)C3(CCNC3=O)C4)c(F)c2)CC1 (stereo not drawn) [Compound C51, 7′-cyclopentyl-2′-((2-fluoro-4-(4-methylpiperazin-1-yl)phenyl)amino)-5′,7′-dihydrospiro[pyrrolidine-3,6′-pyrrolo[2,3-d]pyrimidin]-2-one]
> 30	> 30	CC(C)N1CCN(c2ccc(Nc3ncc4c(n3)N(C3CCCC3)C3(CCNC3=O)C4)c(F)c2)CC1 (stereo not drawn) [Compound C52, 7′-cyclopentyl-2′-((2-fluoro-4-(4-isopropylpiperazin-1-yl)phenyl)amino)-5′,7′-dihydrospiro[pyrrolidine-3,6′-pyrrolo[2,3-d]pyrimidin]-2-one]
0.0926	0.414	CN1CCN(c2ccc(Nc3ncc4c(n3)N(C3CCCC3)C3(CCNC3=O)C4)cn2)CC1 (stereo not drawn) [Compound C54, 7′-cyclopentyl-2′-((6-(4-methylpiperazin-1-yl)pyridin-3-yl)amino)-5′,7′-dihydrospiro[pyrrolidine-3,6′-pyrrolo[2,3-d]pyrimidin]-2-one]
0.053	0.221	CC(C)N1CCN(c2ccc(Nc3ncc4c(n3)N(C3CCCC3)C3(CCNC3=O)C4)cn2)CC1 (stereo not drawn) [Compound C55, 7′-cyclopentyl-2′-((6-(4-isopropylpiperazin-1-yl)pyridin-3-yl)amino)-5′,7′-dihydrospiro[pyrrolidine-3,6′-pyrrolo[2,3-d]pyrimidin]-2-one]
0.222	0.932	O=C1NCCC12Cc1cnc(Nc3ccc(N4CCOCC4)c(F)c3)nc1N2C1CCCC1 (stereo not drawn) [Compound C58, 7′-cyclopentyl-2′-((3-fluoro-4-morpholinophenyl)amino)-5′,7′-dihydrospiro[pyrrolidine-3,6′-pyrrolo[2,3-d]pyrimidin]-2-one]
0.288	1.95	COc1cc(Nc2ncc3c(n2)N(C2CCCC2)C2(CCNC2=O)C3)ccc1N1CCN(C(C)C)CC1 (stereo not drawn) [Compound C62, 7′-cyclopentyl-2′-((4-(4-isopropylpiperazin-1-yl)-3-methoxyphenyl)amino)-5′,7′-dihydrospiro[pyrrolidine-3,6′-pyrrolo[2,3-d]pyrimidin]-2-one]
0.172	0.899	Cc1cc(Nc2ncc3c(n2)N(C2CCCC2)C2(CCNC2=O)C3)ccc1N1CCN(C(C)C)CC1 (stereo not drawn) [Compound C63, 7′-cyclopentyl-2′-((4-(4-isopropylpiperazin-1-yl)-3-methylphenyl)amino)-5′,7′-dihydrospiro[pyrrolidine-3,6′-pyrrolo[2,3-d]pyrimidin]-2-one]
